Consider 24 molecules from patent publication US9481670B2, “Triazine compounds” (Sphaera Pharma PTE. Ltd., priority 2011, dated 2016).

Broadly, the IC50 is the concentration at which inhibition is half-maximal. The low end stands for greater potency, the high end for weaker potency.

For this test, the target named is T1, PI3K alpha (Homo sapiens, UniProt P42336).
T1 construct: purchased Millipore Upstate
T1 sequence (P42336 whole entry): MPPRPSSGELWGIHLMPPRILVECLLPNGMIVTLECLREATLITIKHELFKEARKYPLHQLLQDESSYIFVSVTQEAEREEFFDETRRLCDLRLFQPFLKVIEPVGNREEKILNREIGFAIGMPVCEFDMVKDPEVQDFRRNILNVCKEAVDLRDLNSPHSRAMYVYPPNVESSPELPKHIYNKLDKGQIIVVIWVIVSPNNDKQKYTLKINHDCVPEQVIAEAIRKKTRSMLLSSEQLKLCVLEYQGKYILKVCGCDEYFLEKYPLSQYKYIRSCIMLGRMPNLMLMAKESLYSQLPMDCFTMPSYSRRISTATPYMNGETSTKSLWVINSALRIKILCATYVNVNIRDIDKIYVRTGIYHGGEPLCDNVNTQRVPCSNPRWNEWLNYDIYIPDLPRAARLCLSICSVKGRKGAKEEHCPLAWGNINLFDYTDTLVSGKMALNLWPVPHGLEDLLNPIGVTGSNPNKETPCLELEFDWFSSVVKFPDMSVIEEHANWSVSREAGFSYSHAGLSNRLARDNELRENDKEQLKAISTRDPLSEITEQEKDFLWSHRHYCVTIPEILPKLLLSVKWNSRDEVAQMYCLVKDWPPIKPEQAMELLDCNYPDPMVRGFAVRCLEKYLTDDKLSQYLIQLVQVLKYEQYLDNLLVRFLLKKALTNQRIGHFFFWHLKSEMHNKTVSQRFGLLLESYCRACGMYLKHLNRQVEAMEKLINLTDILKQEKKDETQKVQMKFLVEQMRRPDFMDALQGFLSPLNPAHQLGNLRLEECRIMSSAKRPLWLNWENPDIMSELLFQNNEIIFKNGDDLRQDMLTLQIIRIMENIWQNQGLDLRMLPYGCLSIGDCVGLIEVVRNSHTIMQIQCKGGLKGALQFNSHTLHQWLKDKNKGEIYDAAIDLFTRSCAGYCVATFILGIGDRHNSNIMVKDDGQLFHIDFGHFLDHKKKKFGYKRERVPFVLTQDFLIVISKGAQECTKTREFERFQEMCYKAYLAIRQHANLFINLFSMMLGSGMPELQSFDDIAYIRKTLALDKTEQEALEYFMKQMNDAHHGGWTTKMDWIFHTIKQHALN
T1 sequence (P27986 whole entry partner): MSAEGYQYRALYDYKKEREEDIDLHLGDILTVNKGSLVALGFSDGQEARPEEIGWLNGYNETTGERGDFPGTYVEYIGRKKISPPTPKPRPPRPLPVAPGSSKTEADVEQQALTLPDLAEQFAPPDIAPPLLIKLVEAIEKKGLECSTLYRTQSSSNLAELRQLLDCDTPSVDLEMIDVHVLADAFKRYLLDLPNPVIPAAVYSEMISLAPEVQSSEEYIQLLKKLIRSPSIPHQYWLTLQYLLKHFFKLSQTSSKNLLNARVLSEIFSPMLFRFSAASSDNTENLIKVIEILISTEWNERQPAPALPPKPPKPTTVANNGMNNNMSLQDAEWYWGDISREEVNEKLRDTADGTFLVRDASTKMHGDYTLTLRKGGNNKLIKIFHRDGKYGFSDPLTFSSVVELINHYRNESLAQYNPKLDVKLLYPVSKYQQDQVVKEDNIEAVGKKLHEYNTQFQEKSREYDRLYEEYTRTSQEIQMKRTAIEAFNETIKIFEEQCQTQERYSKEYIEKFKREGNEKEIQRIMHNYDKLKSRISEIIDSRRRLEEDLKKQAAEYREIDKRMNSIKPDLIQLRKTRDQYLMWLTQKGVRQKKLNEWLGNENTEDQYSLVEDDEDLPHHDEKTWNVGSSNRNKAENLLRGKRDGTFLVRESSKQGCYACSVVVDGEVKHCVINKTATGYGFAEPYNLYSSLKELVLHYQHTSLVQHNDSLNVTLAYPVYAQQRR
The experiment in a line: P110 Alpha TR-FRET Assay (PI3K alpha kinase assay, HTRF Transcreener ADP Assay). It counts as biochemical. Conditions: PI3K (WT). Summed up: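 Enzyme (50 ng) and compound were preincubated 20 min in HEPES pH 7.5 buffer containing MgCl2, DTT and vanadate before 10 μM ATP plus 5 μM PIP2 substrate was added for 20 min. ADP produced was quantified by TR-FRET (ADP-d2, anti-ADP cryptate, 1 h).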
As to `CC(Nc1nc(-c2cccc(O)c2)nc(N2CCOCC2)n1)C(=O)N1CCN(S(C)(=O)=O)CC1` (stereo not drawn) [Compound 1076, 2-((4-(3-hydroxyphenyl)-6-morpholino-1,3,5-triazin-2-yl)amino)-1-(4-(methylsulfonyl)piperazin-1-yl)propan-1-one], the IC50 was < 5 µM.

Take `Nc1ncc(-c2nc(N3CCNCC3)nc(N3CCOCC3)n2)cn1` [Compound 1077, 5-13-[4-5-(morpholin-4-yl)-6-3-(piperazin-1-yl)-1,3,5-triazin-2-yl]pyrimidin-2-amine]: the 50% inhibitory concentration (IC50) is < 5 µM.

Consider `O=C(O)CNc1nc(-c2cccc3c2CCC3=O)nc(N2CCOCC2)n1` [Compound 1078, 2-((4-morpholino-6-(1-oxo-2,3-dihydro-1H-inden-4-yl)-1,3,5-triazin-2-yl)amino)acetic acid], for which the concentration for half-maximal inhibition (IC50) is > 5 µM.

With `COc1cccc(-c2nc(NCC(=O)N3CCN(S(C)(=O)=O)CC3)nc(N3CCOCC3)n2)c1` [Compound 1079, 2-((4-(3-methoxyphenyl)-6-morpholino-1,3,5-triazin-2-yl)amino)-1-(4-(methylsulfonyl)piperazin-1-yl)ethanone], the IC50 was > 5 µM.

Take `CS(=O)(=O)N1CCN(C(=O)CNc2nc(-c3ccc(F)nc3)nc(N3CCOCC3)n2)CC1` [Compound 1080, 2-((4-(6-fluoropyridin-3-yl)-6-morpholino-1,3,5-triazin-2-yl)amino)-1-(4-(methylsulfonyl)piperazin-1-yl)ethanone]: the half-inhibitory concentration (IC50) is > 5 µM.

`CNC(=O)c1ccc(Oc2nc(-c3cnc(N)s3)nc(N3CCOCC3)n2)cc1` [Compound 1082]: the IC50 is < 5 µM.

Consider `CS(=O)(=O)N[C@@H]1CC[C@@H](Oc2nc(-c3cccc4[nH]ncc34)nc(N3CCOCC3)n2)C1` [Compound 1083, N-[(1R,3R)-3-14-{[4-1-(1H-indazol-4-yl)-6-5-(morpholin-4-yl)-1,3,5-triazin-2-yl]oxy}cyclopentyl]methanesulfonamide], for which the IC50 is < 5 µM.

`c1ccc(Nc2nc(-c3cccc4c3cnn4C3CCCCO3)nc(N3CCOCC3)n2)cc1` (stereo not drawn) [Compound 1084, 4-morpholino-N-phenyl-6-(1-(tetrahydro-2H-pyran-2-yl)-1H-indazol-4-yl)-1,3,5-triazin-2-amine]: the IC50 was > 5 µM.

In the case of `CN(C)C(=O)Cc1ccc(Oc2nc(-c3cccc4[nH]ncc34)nc(N3CCOCC3)n2)cc1` [Compound 1085, 2-27-(4-14-{[4-1-(1H-indazol-4-yl)-6-5-(morpholin-4-yl)-1,3,5-triazin-2-yl]oxy}phenyl)-N,N-dimethylacetamide], the IC50 is < 5 µM.

Turning to `O=c1[nH]c2ccc(Oc3nc(-c4cccc5[nH]ncc45)nc(N4CCOCC4)n3)cc2[nH]1` [Compound 1086, 5-23-{[4-1-(1H-indazol-4-yl)-6-5-(morpholin-4-yl)-1,3,5-triazin-2-yl]oxy}-2,3-dihydro-1H-1,3-benzodiazol-2-one], the IC50 was < 5 µM.

As to `CN(C)C(=O)N1CCCC(Oc2nc(-c3cccc4[nH]ncc34)nc(N3CCOCC3)n2)CC1` (stereo not drawn) [Compound 1087, 4-14-{[4-1-(1H-indazol-4-yl)-6-5-(morpholin-4-yl)-1,3,5-triazin-2-yl]oxy}-N,N-dimethylazepane-1-carboxamide], the IC50 is < 5 µM.

With `CN(C)C(=O)c1cccc(Oc2nc(-c3cccc4[nH]ncc34)nc(N3CCOCC3)n2)c1` [Compound 1088, 3-22-{[4-1-(1H-indazol-4-yl)-6-5-(morpholin-4-yl)-1,3,5-triazin-2-yl]oxy}-N,N-dimethylbenzamide], the IC50 is < 5 µM.

As for `CS(=O)(=O)N1CCN(C(=O)CNc2nc(-c3cccc(O)c3)nc(N3CCOCC3)n2)CC1` [Compound 1089, 2-((4-(3-hydroxyphenyl)-6-morpholino-1,3,5-triazin-2-yl)amino)-1-(4-(methylsulfonyl)piperazin-1-yl)ethanone], the IC50 is < 5 µM.

Take `NC(=O)C(Cc1ccccc1)Nc1nc(-c2cccc(O)c2)nc(N2CCOCC2)n1` (stereo not drawn) [Compound 1090, 2-((4-(3-hydroxyphenyl)-6-morpholino-1,3,5-triazin-2-yl)amino)-3-phenylpropanamide]: the IC50 was < 5 µM.

Regarding `CN(C)C(=O)N1CCCC(Oc2nc(-c3cccc4[nH]ncc34)nc(N3CCOCC3)n2)C1` (stereo not drawn) [Compound 1091, 3-22-{[4-1-(1H-indazol-4-yl)-6-5-(morpholin-4-yl)-1,3,5-triazin-2-yl]oxy}-N,N-dimethylpiperidine-1-carboxamide], the IC50 was < 5 µM.

In the case of `NS(=O)(=O)Nc1ccc(Oc2nc(-c3cccc4[nH]ncc34)nc(N3CCOCC3)n2)cc1` [Compound 1092, N-(4-14-{[4-1-(1H-indazol-4-yl)-6-5-(morpholin-4-yl)-1,3,5-triazin-2-yl]oxy}phenyl)aminosulfonamide], the IC50 is < 5 µM.

Regarding `CS(=O)(=O)Nc1ccc(Oc2nc(-c3cccc4[nH]ncc34)nc(N3CCOCC3)n2)cc1` [Compound 1093, N-(4-14-{[4-1-(1H-indazol-4-yl)-6-5-(morpholin-4-yl)-1,3,5-triazin-2-yl]oxy}phenyl)methanesulfonamide], the IC50 was < 5 µM.

As for `NS(=O)(=O)N[C@H]1CC[C@H](Oc2nc(-c3cccc4[nH]ncc34)nc(N3CCOCC3)n2)CC1` [Compound 1094, N-[(1r,4r)-4-9-{[4-1-(1H-indazol-4-yl)-6-5-(morpholin-4-yl)-1,3,5-triazin-2-yl]oxy}cyclohexyl]aminosulfonamide], the IC50 is < 5 µM.

Turning to `CS(=O)(=O)N[C@H]1CC[C@H](Oc2nc(-c3cccc4[nH]ncc34)nc(N3CCOCC3)n2)CC1` [Compound 1095, N-[(1r,4r)-4-9-{[4-1-(1H-indazol-4-yl)-6-5-(morpholin-4-yl)-1,3,5-triazin-2-yl]oxy}cyclohexyl]methanesulfonamide], the half-maximal inhibitory concentration (IC50) was < 5 µM.

For the molecule `CS(=O)(=O)N1CCC(COc2nc(-c3cccc4[nH]ncc34)nc(N3CCOCC3)n2)CC1` [Compound 1096, 4-(4-(1H-indazol-4-yl)-6-((1-(methylsulfonyl)piperidin-4-yl)methoxy)-1,3,5-triazin-2-yl)morpholine], the IC50 is < 5 µM.

Regarding `CC1COCC(C)N1c1nc(Oc2ccc(C(=O)N(C)C)cc2)nc(-c2cccc3[nH]ncc23)n1` (stereo not drawn) [Compound 1097, 4-9-{[4-5-(3-28,5-32-dimethylmorpholin-4-yl)-6-1-(1H-indazol-4-yl)-1,3,5-triazin-2-yl]oxy}-N,N-dimethylbenzamide], the IC50 is < 5 µM.

On to `CC1COCCN1c1nc(Oc2ccc(C(=O)N(C)C)cc2)nc(-c2cccc3[nH]ncc23)n1` (stereo not drawn) [Compound 1098, 4-9-{[4-1-(1H-indazol-4-yl)-6-5-(3-28-methylmorpholin-4-yl)-1,3,5-triazin-2-yl]oxy}-N,N-dimethylbenzamide], for which the IC50 is < 5 µM.

On to `CN(C)C(=O)[C@H]1C[C@H](Oc2nc(-c3cccc4[nH]ncc34)nc(N3CCOCC3)n2)CN1C` [Compound 1099, (2R,4S)-4-14-{[4-1-(1H-indazol-4-yl)-6-5-(morpholin-4-yl)-1,3,5-triazin-2-yl]oxy}-N,N,1-trimethylpyrrolidine-2-carboxamide], for which the IC50 is < 5 µM.

`CNC(=O)C(=O)Nc1ccc(Oc2nc(-c3cccc4[nH]ncc34)nc(N3CCOCC3)n2)cc1` [Compound 1100, N-(4-14-{[4-1-(1H-indazol-4-yl)-6-5-(morpholin-4-yl)-1,3,5-triazin-2-yl]oxy}phenyl)-N′-methylethanediamide]: the IC50 is < 5 µM.
